According to PubChem BioAssay AID1963847 (Molecular Pharmacology Branch, DTP, NCI, 2024):
Where “and” joins values, the source holds several entries; their conditions need not be identical. Equal values may be shown once.

System: 415267-285-R-J2-PDC complex spheroid viability
Assay: Anticancer human tumor 415267-285-R-J2-PDC patient-derived breast carcinoma cell line growth inhibition [POLQ]
Details: for viability, T/C: stronger effect = lower value
Method: Multicellular complex tumor spheroid response to Polymerase (POL) inhibitors (novobiocin, ART-558, RP6685) in combination with a variety of drugs and investigational agents in selected tumor cell lines
The POL inhibitors (novobiocin, ART-558, and RP6685) were evaluated both individually and in combination with standard of care and investigational anticancer small molecules within a complex spheroid model of solid tumors. . Complex spheroids include a stromal component modeled by human endothelial cells (HUVEC) and fibroblasts modeled by human mesenchymal stem cells (MSCs). The concentration ranges selected for each drug and investigational agent were based upon clinically achievable concentrations if the clinical Cmax of the agent was known.
Compounds. The drugs and investigational agents: novobiocin (NSC847541), ART-558 (NSC835418), RP-6685 (NSC848927), peposertib (NSC802822), ceralasertib (NSC780249), elimusertib (NSC800525), camonsertib (NSC841442), AZD-1390 (NSC803789), olaparib (NSC753686), talazoparib (NSC767125), rucaparib (NSC756644), sotorasib (NSC818433), MRTX-1133 (NSC836407), SN-38 (NSC673596), topotecan (NSC609699), epotoside (NSC141540), doxorubicin (NSC123127), gemcitabine (NSC613327), 5-fluorouracil (NSC19893), paclitaxel (NSC125973), vemurafenib (NSC761431), MSA-2 (NSC828583), SN-011 (NSC837082), adavosertib (NSC754352), prexasertib (NSC758257), carboplatin (NSC241240) and oxaliplatin (NSC266046), were obtained from the National Cancer Institute (NCI) Developmental Therapeutics Program Chemical Repository (21). The FDA-approved anticancer drug set is available from the Developmental Therapeutics Program at https://dtp.cancer.gov/organization/dscb/obtaining/. […] The stock solutions were prepared in dimethyl sulfoxide (DMSO, Sigma-Aldrich, St. Louis, MO, cat. D2650), except for the platinum compounds which were prepared in saline (Quality Biological, Gaithersburg, MD, cat. 114-055-101), at 800-fold the tested concentration and stored at -70 degrees C prior to their use. All drugs and investigational agents were tested over a range starting from a high concentration at or near the clinical Cmax and decreasing in half-log increments. If the clinical Cmax for an agent had not been determined, the highest concentration tested was 10 microM, except for SN-38, which was tested at a high concentration of 1 microM.
Cell Culture. All cells were maintained in an incubator at 37 degrees C and 5% CO2 with 95% humidity. The PDC lines were cultured according to standard operating procedures established by the NCI PDMR (https://pdmr.cancer.gov). Table 3 of the manuscript, lists the cell lines along with the number of the three cell types plated to form the mct-spheroids and media for tumor cell growth. After thawing, all PDC lines, except 997537-175-T-J1-PDC and 415267-285-R-J2-PDC, were cultured in Matrigel-coated flasks prepared with a working solution of 1X Ham's F-12 nutrient mix, without supplementation (Thermo Fisher Scientific, cat. 11765054), 100 U/mL penicillin-streptomycin (Thermo Fisher Scientific, cat. 15140122), and 2.5% Matrigel (Corning Inc., Corning, NY, cat. 354248) for the first three passages. The two PDC lines 997537-175-T-J1-PDC and 415267-285-R-J2-PDC were cultured on uncoated flasks. The 857933-349-R-J2-PDC line was cultured in 6C/Colon 1B media containing advanced DMEM/F-12 (Thermo Fisher Scientific, cat. 12634028), 10 mM HEPES (Thermo Fisher Scientific, cat. 15630080), 1X GlutaMAX supplement (Thermo Fisher Scientific, cat. 35050061), 0.1 mg/mL primocin (InvivoGen, San Diego, CA, cat. ant-pm-2), 10% defined fetal bovine serum, heat inactivated (HyClone Laboratories Inc., Logan, UT, cat. SH30070.03HI), 50% L-WRN conditioned media (ATCC, cat. CRL-3276), 1.25 mM N-Acetyl-L-cysteine (Sigma-Aldrich, cat. A9165), 10 mM nicotinamide (Sigma-Aldrich, cat. N0636), 1X B-27 supplement (Thermo Fisher Scientific, cat. 17504044), 1X N-2 supplement (Thermo Fisher Scientific, cat. […]

[1] = curve of first compound, second compound 0.0316 µM
[2] = curve of first compound, second compound 0.1 µM
[3] = curve of first compound, second compound 0.316 µM
[4] = curve of first compound, second compound 1 µM
[5] = curve of first compound, second compound 3.16 µM
[6] = curve of first compound, second compound 10 µM
[7] = second compound 0.0316 µM, first compound 0.0316 µM
[8] = second compound 0.0316 µM, first compound 0.1 µM
[9] = second compound 0.0316 µM, first compound 0.316 µM
[10] = second compound 0.0316 µM, first compound 1 µM
[11] = second compound 0.0316 µM, first compound 3.16 µM
[12] = second compound 0.0316 µM, first compound 10 µM
[13] = second compound 0.1 µM, first compound 0.0316 µM
[14] = second compound 0.1 µM, first compound 0.1 µM
[15] = second compound 0.1 µM, first compound 0.316 µM
[16] = second compound 0.1 µM, first compound 1 µM
[17] = second compound 0.1 µM, first compound 3.16 µM
[18] = second compound 0.1 µM, first compound 10 µM
[19] = second compound 0.316 µM, first compound 0.0316 µM
[20] = second compound 0.316 µM, first compound 0.1 µM
[21] = second compound 0.316 µM, first compound 0.316 µM
[22] = second compound 0.316 µM, first compound 1 µM
[23] = second compound 0.316 µM, first compound 3.16 µM
[24] = second compound 0.316 µM, first compound 10 µM
[25] = second compound 1 µM, first compound 0.0316 µM
[26] = second compound 1 µM, first compound 0.1 µM
[27] = second compound 1 µM, first compound 0.316 µM
[28] = second compound 1 µM, first compound 1 µM
[29] = second compound 1 µM, first compound 3.16 µM
[30] = second compound 1 µM, first compound 10 µM
[31] = second compound 3.16 µM, first compound 0.0316 µM
[32] = second compound 3.16 µM, first compound 0.1 µM
[33] = second compound 3.16 µM, first compound 0.316 µM
[34] = second compound 3.16 µM, first compound 1 µM
[35] = second compound 3.16 µM, first compound 3.16 µM
[36] = second compound 3.16 µM, first compound 10 µM
[37] = second compound 10 µM, first compound 0.0316 µM
[38] = second compound 10 µM, first compound 0.1 µM
[39] = second compound 10 µM, first compound 0.316 µM
[40] = second compound 10 µM, first compound 1 µM
[41] = second compound 10 µM, first compound 3.16 µM
[42] = second compound 10 µM, first compound 10 µM
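Further: spheroids exposed to compounds for one week before readout.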
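Wherever viability, T/C is given: luminescence used as stand-in measure of viable cells; 100% = DMSO vehicle control viability.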

## C=CC(=O)N1CCN(c2nc(=O)n(-c3c(C)ccnc3C(C)C)c3nc(-c4c(O)cccc4F)c(F)cc23)C(C)C1 (stereo unspecified) + Cc1cccc(N(C)C(=O)C2C(O)CCN2c2nc(C)cc(C(F)(F)F)c2C#N)c1
[1]
  IC50: > 10 µM
[2]
  IC50: > 10 µM
[3]
  IC50: > 10 µM
[4]
  IC50: > 10 µM
[5]
  IC50: > 10 µM
[6]
  IC50: > 10 µM
[7]
  viability, T/C: 101%
[8]
  viability, T/C: 104%
[9]
  viability, T/C: 102%
[10]
  viability, T/C: 104%
[11]
  viability, T/C: 111%
[12]
  viability, T/C: 93.5%
[13]
  viability, T/C: 98.4%
[14]
  viability, T/C: 95.6%
[15]
  viability, T/C: 98.7%
[16]
  viability, T/C: 103%
[17]
  viability, T/C: 100%
[18]
  viability, T/C: 97.7%
[19]
  viability, T/C: 103%
[20]
  viability, T/C: 106%
[21]
  viability, T/C: 105%
[22]
  viability, T/C: 105%
[23]
  viability, T/C: 99.5%
[24]
  viability, T/C: 102%
[25]
  viability, T/C: 95.8%
[26]
  viability, T/C: 105%
[27]
  viability, T/C: 106%
[28]
  viability, T/C: 99.8%
[29]
  viability, T/C: 112%
[30]
  viability, T/C: 91.4%
[31]
  viability, T/C: 99.2%
[32]
  viability, T/C: 104%
[33]
  viability, T/C: 107%
[34]
  viability, T/C: 102%
[35]
  viability, T/C: 99.1%
[36]
  viability, T/C: 96.7%
[37]
  viability, T/C: 100%
[38]
  viability, T/C: 90.8%
[39]
  viability, T/C: 101%
[40]
  viability, T/C: 102%
[41]
  viability, T/C: 94.4%
[42]
  viability, T/C: 88.8%

## CCc1cc2c(N3CCc4c(cc(Cn5ccnc5)cc4-c4cn(C)nc4C(F)(F)F)C3=O)cc(C)nc2c(OC)n1 + Cc1cccc(N(C)C(=O)C2C(O)CCN2c2nc(C)cc(C(F)(F)F)c2C#N)c1
[1]
  IC50: > 10 µM
[2]
  IC50: > 10 µM
[3]
  IC50: > 10 µM
[4]
  IC50: > 10 µM
[5]
  IC50: > 10 µM
[6]
  IC50: > 10 µM
[7]
  viability, T/C: 92.6%
[8]
  viability, T/C: 98.2%
[9]
  viability, T/C: 82%
[10]
  viability, T/C: 91.5%
[11]
  viability, T/C: 90%
[12]
  viability, T/C: 77.1%
[13]
  viability, T/C: 93%
[14]
  viability, T/C: 89.3%
[15]
  viability, T/C: 83%
[16]
  viability, T/C: 89.8%
[17]
  viability, T/C: 81%
[18]
  viability, T/C: 71.7%
[19]
  viability, T/C: 97.7%
[20]
  viability, T/C: 91.4%
[21]
  viability, T/C: 95.1%
[22]
  viability, T/C: 89.7%
[23]
  viability, T/C: 85.1%
[24]
  viability, T/C: 80.2%
[25]
  viability, T/C: 102%
[26]
  viability, T/C: 81.4%
[27]
  viability, T/C: 84.5%
[28]
  viability, T/C: 91.7%
[29]
  viability, T/C: 88.7%
[30]
  viability, T/C: 74.7%
[31]
  viability, T/C: 92.3%
[32]
  viability, T/C: 99.7%
[33]
  viability, T/C: 90.7%
[34]
  viability, T/C: 89.8%
[35]
  viability, T/C: 84.8%
[36]
  viability, T/C: 87.9%
[37]
  viability, T/C: 90.3%
[38]
  viability, T/C: 95.7%
[39]
  viability, T/C: 89.2%
[40]
  viability, T/C: 91.7%
[41]
  viability, T/C: 81.2%
[42]
  viability, T/C: 81.7%

## C#Cc1c(F)ccc2cc(O)cc(-c3ncc4c(N5CC6CCC(C5)N6)nc(OCC56CCCN5CC(F)C6)nc4c3F)c12 (stereo unspecified)
Compound 0.0316 µM
  viability, T/C: 106% and 95.4% and 97.2%
Compound 0.1 µM
  viability, T/C: 103% and 112% and 92.5%
Compound 0.316 µM
  viability, T/C: 102% and 106% and 94.2%
Compound 1 µM
  viability, T/C: 107% and 109% and 97.7%
Compound 3.16 µM
  viability, T/C: 106% and 91.5% and 101%
Compound 10 µM
  viability, T/C: 101% and 98% and 104%
Curve of compound
  IC50: > 10 µM
